According to patent US20100184770A1, “COMPOUNDS” (Glaxo Group Limited, priority 2006, published 2010):

Assays:
[1] = target: T1, human H1 receptor (Homo sapiens, UniProt P35367); assay: Histamine H1 functional antagonist assay: determination of antagonist duration (washout, FLIPR); assay type: cell-based; details: at one or more time points after washout
T1 construct: expressed in transfected cells
Method: 1. Generation of Histamine H1 Cell Line The human H1 receptor is cloned using known procedures described in the literature [Biochem. Biophys. Res. Commun., 201(2):894 (1994)]. Chinese hamster ovary (CHO) cells stably expressing the human H1 receptor are generated according to known procedures described in the literature [Br. J. Pharmacol., 117(6):1071 (1996)].
To determine the antagonist duration, cells are cultured overnight in non-coated black-walled clear bottom 96-well tissue culture plates, are washed with PBS and are incubated with a concentration of antagonist chosen to give an approximate DR in the range 30-300. Following the 30 min antagonist incubation period, the cells are washed two or three times with 200 μl of PBS and then 100 μl Tyrodes buffer is added to each well to initiate antagonist dissociation. Following incubation for predetermined times, typically 30-270 min at 37° C., the cells are then washed again with 200 μl PBS and are incubated with 100 Tyrodes buffer containing Brilliant Black, probenecid and Fluo-4 for 45 min at 37° C., as described above. After this period, the cells are challenged with histamine in the FLIPR™ as described above. The dose ratio at each time point is used to determine the fractional H1 receptor occupancy by the following equation: fractional receptor occupancy=(DR-1)/DR. The decrease in receptor occupancy over time approximates to a straight line and is analysed by linear regression. The slope of this straight line fit is used as an index of the dissociation rate of the antagonist. The dose ratios for antagonist treated cells and for antagonist treated and washed cells at each time point are used to calculate a relative dose ratio (rel DR) which is also used as an index of antagonist duration. Antagonists with long duration of action produce rel DR values close to 1, and antagonists with short duration of action produce rel DR values that approaches the dose ratio value obtained for antagonist treatment alone.

[2] = target: T2, histamine H3 receptor (Homo sapiens, UniProt Q9Y5N1); assay: Histamine H3 functional antagonist assay ([35S]-GTPγS, membranes); assay type: biochemical; details: histamine at EC80, read-out: average pKi (pKb) at H3 (converted)
T2 construct: expressed in transfected cells; host or cells: CHO K1 cells with pSwitch/pGene (GeneSwitch), clone 3H3, mifepristone-induced; membranes
Method: The histamine H3 cDNA is isolated from its holding vector, pcDNA3.1 TOPO (InVitrogen), by restriction digestion of plasmid DNA with the enzymes BamH1 and Not-1 and is ligated into the inducible expression vector pGene (InVitrogen) digested with the same enzymes. The GeneSwitch™ system (a system where in transgene expression is switched off in the absence of an inducer and switched on in the presence of an inducer) is performed as described in U.S. Pat. Nos. 5,364,791; 5,874,534; and 5,935,934. Ligated DNA is transformed into competent DH5α E. coli host bacterial cells and is plated onto Luria Broth (LB) agar containing Zeocin™ (an antibiotic which allows the selection of cells expressing the sh ble gene which is present on pGene and pSwitch) at 50 μgml^−1. Colonies containing the re-ligated plasmid are identified by restriction analysis. […]
10-14 days post selection, 10 nM Mifepristone (InVitrogen) is added to the culture medium to induce the expression of the receptor. […] Receptor bound antibody is detected by incubation of the cells for 60 min on ice with a goat anti rabbit antibody, conjugated with Alexa 488 fluorescence marker (Molecular Probes). Following two further washes with Sorting Medium, cells are filtered through a […] Filcon™ (BD Biosciences) and then are analysed on a FACS Vantage SE Flow Cytometer fitted with an Automatic Cell Deposition Unit. […]

T2 sequence (Q9Y5N1 whole entry, species assumed): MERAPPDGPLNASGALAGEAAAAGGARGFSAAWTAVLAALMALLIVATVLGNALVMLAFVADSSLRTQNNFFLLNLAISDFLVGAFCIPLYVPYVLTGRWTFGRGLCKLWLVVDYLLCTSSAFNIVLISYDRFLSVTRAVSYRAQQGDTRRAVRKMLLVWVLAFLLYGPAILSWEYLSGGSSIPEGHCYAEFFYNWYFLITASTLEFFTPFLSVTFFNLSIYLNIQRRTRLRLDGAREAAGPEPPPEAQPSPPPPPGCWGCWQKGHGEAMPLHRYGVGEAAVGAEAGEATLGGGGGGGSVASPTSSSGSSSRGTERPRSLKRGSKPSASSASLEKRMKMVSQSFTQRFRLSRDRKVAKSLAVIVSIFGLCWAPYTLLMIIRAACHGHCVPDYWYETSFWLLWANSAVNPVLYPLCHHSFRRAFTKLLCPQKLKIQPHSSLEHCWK
T1 sequence (P35367 whole entry): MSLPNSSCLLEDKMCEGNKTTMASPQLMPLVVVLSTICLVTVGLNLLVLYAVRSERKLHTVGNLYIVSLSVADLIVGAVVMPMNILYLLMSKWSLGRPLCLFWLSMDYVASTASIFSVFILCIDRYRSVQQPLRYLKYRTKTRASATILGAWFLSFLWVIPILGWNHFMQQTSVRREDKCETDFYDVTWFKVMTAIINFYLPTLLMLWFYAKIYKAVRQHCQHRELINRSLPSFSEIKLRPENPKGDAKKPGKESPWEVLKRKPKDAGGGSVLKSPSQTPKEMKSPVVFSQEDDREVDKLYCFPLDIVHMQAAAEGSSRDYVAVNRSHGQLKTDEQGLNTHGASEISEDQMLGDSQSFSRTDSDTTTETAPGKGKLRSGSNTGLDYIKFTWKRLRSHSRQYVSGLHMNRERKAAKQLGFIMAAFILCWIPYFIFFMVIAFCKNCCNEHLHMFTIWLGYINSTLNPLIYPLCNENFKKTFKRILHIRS

| SMILES | duration of action compared with azelastine in the histamine H1 functional antagonist assay [1] | Ki [2] [µM] |
| --- | --- | --- |
| COCCC(=O)NCCN1CCC[C@@H]1Cn1nc(Cc2ccc(Cl)cc2)c2ccccc2c1=O.O=CO [Example 35, N-[2-((2R)-2-{[4-[(4-Chlorophenyl)methyl]-1-oxo-2(1H)-phthalazinyl]methyl}-1-pyrrolidinyl)ethyl]-3-(methyloxy)propanamide, formate salt] | longer duration of action than azelastine | > 0.316 |
| Cl.O=C(CC(F)(F)F)NCCN1CCC[C@@H]1Cn1nc(Cc2ccc(Cl)cc2)c2ccccc2c1=O [Example 36a, N-[2-((2R)-2-{[4-[(4-Chlorophenyl)methyl]-1-oxo-2(1H)-phthalazinyl]methyl}-1-pyrrolidinyl)ethyl]-3,3,3-trifluoropropanamide, hydrochloride] | longer duration of action than azelastine | > 0.316 |
